For data set [1], the system named is cisplatin resistant mouse leukemia cells L1210 (L1210/CDDP). Put plainly: Experiment 2 growth inhibition of cisplatin resistant L1210/CDDP cells. In kind it is cell-based.
For data set [2], the system named is Mouse leukemia cells L1210. Put plainly: Experiment 1 anti-tumor activity test in L1210 implanted CDF1 mice. In kind it is in vivo. Conditions: for T/C: L1210 i.p. implanted CDF1 mice; for Number of survived mice (on 30th day): survivors/total on 30th day. How it is done: Mouse leukemia cells L1210 (1×10^5) were implanted intraperitoneally to CDF1 mice (female, aged: 8 weeks) on the 0 day of implantation. CDDP and CBDCA were used as a reference. The anti-tumor activity of the platinum complexes in L1210 implanted mice were expressed by the T/C value, which was determined according to the following equation, and by the number of mice which survived until the 30th day of implantation. [formula]

The conditions of data set [3]: mouse, in vivo.
Description: (§1) Test compounds were administered to ICR mice (aged: 8 weeks) on the 1st day, the 5th day and the 9th day. The blood was collected therefrom on the 12th day, and the concentrations of blood urea nitrogen (BUN) were determined.
(§2) *Control group: druguntreated normal mouse
Data set [4] can be described thus: Experiment 3 blood urea nitrogen (BUN) and body weight in ICR mice. The settings on record: for Difference of weights: average weight 12th day vs 1st day; for BUN value: blood on 12th day, control 27.2 ± 1.9.
Description: as §1, §2
The subject of a further data set is L1210 cells. Put plainly: Experiment 2 growth inhibition of L1210 cells. The class given is cell-based, mouse. Conditions: text calls it IC50. How it is done:
The drug sensitivity (a) was determined according to the following equation. [formula]

Where two headings read alike, the source gives them in different places. Some results are limits rather than exact numbers.

In general, T/C refers to the ratio of treated to control. What is called IC50 is the concentration at which inhibition is half-maximal.

Turning to “cis-dichloro-(2-methyl-2-trifluoromethyl-1,3-propanediamine)platinum (II) [Compound of Ex. 1]”, in data set [1], the “IC50 L1210/CDDP” value was 0.10 mg/L. The T/C is above 304% in data set [2] (dose 12.5 mg/kg), 375% in data set [2] (dose 25 mg/kg) and 273% in data set [2] (dose 50 mg/kg). Moreover, the “Number of survived mice (on 30th day)” value in data set [2] (dose 12.5 mg/kg) is on record as 3/6; in data set [2] (dose 25 mg/kg) it was 6/6; in data set [2] (dose 50 mg/kg), 0/6. The BUN value in data set [3] (25 mg/kg) is 23.3 mg/dL; in data set [3] (50 mg/kg) it was 17.8 mg/dL. Besides, the Difference of weights is -2.3 g in data set [3] (25 mg/kg) and -5.4 g in data set [3] (50 mg/kg).
Consider `N.N.[Cl][Pt][Cl]` [CDDP, cis-dichlorodiamine platinum (II)], for which the “IC50 L1210/CDDP” value in data set [1] was 0.50 mg/L. For the same molecule, the T/C was 227% in data set [2] (dose 6.25 mg/kg), 282% in data set [2] (dose 12.5 mg/kg) and 367% in data set [2] (dose 25 mg/kg). Also, the “Number of survived mice (on 30th day)” value in data set [2] (dose 6.25 mg/kg) is 0/6; in data set [2] (dose 12.5 mg/kg) it was 1/6; in data set [2] (dose 25 mg/kg) it was 4/6. In addition, the Difference of weights is on record as -4.8 g in data set [4] (dose 18 mg/kg on days 1, 5, 9) and -8.9 g in data set [4] (dose 25 mg/kg on days 1, 5, 9). Moreover, the BUN value in data set [4] (dose 18 mg/kg on days 1, 5, 9) was 83.7 mg/dL; in data set [4] (dose 25 mg/kg on days 1, 5, 9), 112.3 ± 16.6 mg/dL.
Regarding `CC(CN)(CN)C(F)(F)F.O=C([O-])C1(C(=O)[O-])CCC1.[Pt+2]` [Compound of Ex. 2, cis-(2-methyl-2-trifluoromethyl-1,3-propanediamine)-1,1-cyclobutanedicarboxylato platinum (II)], the T/C in data set [2] (dose 50 mg/kg) worked out at 192%; in data set [2] (dose 100 mg/kg), 267%. Besides, the “Number of survived mice (on 30th day)” value in data set [2] (dose 50 mg/kg) and in data set [2] (dose 100 mg/kg) was 0/6 in each case.
`N.N.O=C([O-])C1(C(=O)[O-])CCC1.[Pt+2]` [CBDCA, cisdiamino-1,1-cyclobutanedicarboxylato platinum (II)]: the IC50 in the data set with L1210 cells worked out at 0.25 mg/L. Moreover, the “IC50 L1210/CDDP” value in data set [1] was 1.82 mg/L. Besides, the T/C in data set [2] (dose 12.5 mg/kg) is reported as 139%; in data set [2] (dose 25 mg/kg), 199%; in data set [2] (dose 50 mg/kg) it was 340%; in data set [2] (dose 100 mg/kg) it was 366%. The “Number of survived mice (on 30th day)” value is given as 0/6 in data set [2] (dose 12.5 mg/kg), 0/6 in data set [2] (dose 25 mg/kg), 2/6 in data set [2] (dose 50 mg/kg) and 2/6 in data set [2] (dose 100 mg/kg). For the same molecule, the Difference of weights in data set [4] (dose 100 mg/kg on days 1, 5, 9) is on record as -3.0 g. The molecule also displayed a BUN value in data set [4] (dose 100 mg/kg on days 1, 5, 9) of 21.0 ± 4.0 mg/dL.

(Values after US5101054A, “Novel fluorine-containing platinum complex” (priority 1989, dated 1992).)
